Results on one compound are retold here after patent US20070166712A1, “Cyp2s1 as target for diagnosis and therapy of skin diseases” (UNIVERSITY COURT OF THE UNIVERSITY OF DUNDEE, priority 2003, published 2007).

The subject of series [1] is human liver microsomes. The experiment in a line: atRA metabolism by human liver microsomes (HPLC). Format: in vitro ADME. The note with it: confirmed with authentic standard. As for the experimental part: (§1) E. Coli membranes co-expressing CYP2S1 and CPR were incubated with atRA as previously described^17. CYP2S1-derived atRA metabolites (FIG. 4A) were separated by HPLC and identified by comparison with the elution profile of human liver microsomes (FIG. 4B). Control incubations were performed in the absence of the NADPH regenerating system (FIG. 4C).
(§2) The CYP2S1 cDNA, a generous gift from Professor Oliver Hankinson, Department of Pathology and Laboratory Medicine, Jonsson Comprehensive Cancer Centre and Molecular Biology Institute, UCLA, Los Angeles was constructed and co-expressed with CPR in E. Coli as previously described^16. CYP2S1 metabolism of atRA was performed using HPLC analysis as previously described^17, using E. coli membranes co-expressing CYP2S1 and CPR and an NADPH regenerating system. Control reactions were performed in the absence of CYP2S1 and in the absence of the NADPH regenerating system. CYP2S1 metabolites were identified by comparison with elution times and UV profiles of atRA metabolites generated by human liver microsomes which had previously been identified using authentic standards.
(Liver microsomes are a subcellular fraction often used to study metabolism.)

The subject of series [2] is CYP1A1 mRNA expression. Briefly: CYP1A1 mRNA expression in skin of volunteer panel after topical chemicals. Format: in vivo, human. The note with it: topical application, data not shown.
In series [3] the test system is CYP2S1 mRNA expression. The experiment in a line: CYP2S1 mRNA expression in skin after topical chemicals (Taqman quantitative real-time RT-PCR). It is filed as in vivo, human. The note with it: healthy volunteers, occluded 96 hours on buttock skin, vs control skin. In general terms: Quantitative PCR measures a nucleic acid by following its amplification.
In series [4] the test system is CYP3A5. The experiment in a line: Cutaneous expression and regulation by ATRA of additional CYP450s. It is filed as in vivo.
Series [5] addresses T1, CYP2S1 (Homo sapiens, UniProt Q96SQ9).
T1 construct: made in house; host or cells: E. coli (membrane fraction)
T1 sequence (Q96SQ9 1-504): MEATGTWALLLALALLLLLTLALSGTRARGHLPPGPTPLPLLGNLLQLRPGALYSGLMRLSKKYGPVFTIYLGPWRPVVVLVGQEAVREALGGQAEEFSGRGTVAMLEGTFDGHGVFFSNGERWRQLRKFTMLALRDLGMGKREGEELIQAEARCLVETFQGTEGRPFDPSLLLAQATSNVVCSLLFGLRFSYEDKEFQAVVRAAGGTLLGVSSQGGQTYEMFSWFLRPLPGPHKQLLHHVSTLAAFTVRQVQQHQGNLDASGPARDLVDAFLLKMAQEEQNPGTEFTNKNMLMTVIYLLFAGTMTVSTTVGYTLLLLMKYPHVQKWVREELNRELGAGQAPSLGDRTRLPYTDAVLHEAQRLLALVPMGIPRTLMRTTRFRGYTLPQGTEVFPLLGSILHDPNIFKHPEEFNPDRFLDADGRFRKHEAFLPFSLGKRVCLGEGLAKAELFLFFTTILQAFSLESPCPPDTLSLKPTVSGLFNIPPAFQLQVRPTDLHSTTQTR
The experiment in a line: atRA metabolism by heterologously expressed CYP2S1 (E. coli membranes co-expressing CYP2S1 and CPR, HPLC). It is filed as in vitro ADME. The conditions noted are these: NADPH regenerating system. As for the experimental part:
as §1, §2

Turning to `CC1=C(/C=C/C(C)=C/C=C/C(C)=C/C(=O)O)C(C)(C)CCC1` [atRA, all-trans retinoic acid], in series [1], the “formation of 4-oxo RA metabolite by human liver microsomes” value is “produced by human liver microsomes”. The “effect on CYP1A1 mRNA expression” value in series [2] is “suppressed”. Further, the “individuals showing marked CYP2S1 induction (mRNA)” value in series [3] is recorded as 6/14. The “inducibility of CYP3A5 in human skin” value in series [4] is reported as “not inducible”. Also, in series [5], the “atRA metabolites produced by CYP2S1” value is 4-OH-RA and 5,6-epoxy RA; the “formation of 4-oxo RA metabolite by CYP2S1” value is “did not appear to produce”.
